The values that follow come from patent US10793582B2, “Bicyclic heterocyclic compound” (MITSUBISHI TANABE PHARMA CORPORATION, priority 2015, dated 2020).

The assay addresses human recombinant KAT-II (Homo sapiens (Human), UniProt Q8N5Z0). The assay can be described thus: KAT-II inhibitory test. In kind it is biochemical. The note with it: 3.0 μmol/L kynurenine, 37° C. for 1 hr, kynurenic acid by HPLC. As for the experimental part: The compounds described in the above-mentioned Examples were used for the KAT-II inhibitory test.
Human recombinant KAT-II was prepared as follows.
His tag and maltose binding protein tag were added to the N-terminal of a gene encoding human KAT-II (Genbank accession number: AF481738.1), and the obtained gene was incorporated into pET32 (Merck Nihon Millipore), which is an Escherichia coli expression vector. Human recombinant KAT-II produced by BL21(DE3) Escherichia coli (Merck Nihon Millipore, 69450) transformed using the plasmid was purified using an amylose resin column (New England Biolabs, #800-21 L).
The inhibitory action of the test compound on human recombinant KAT-II was determined by the following method.
To a reaction mixture (45 μL) containing 3.0 μmol/L kynurenine, 10 μmol/L pyridoxal phosphate, 2.0 ng/μL human recombinant KAT-II, and 150 mmol/L tris(hydroxymethyl)aminomethane-acetate buffer (pH 8.0) was added a 10% dimethyl sulfoxide solution (5 μL) of each test compound prepared, and the mixture was reacted at 37° C. for 1 hr. After the reaction, 50% trichloroacetic acid (5 μL) was added to terminate the reaction.
The resultant kynurenic acid was quantified as follows by high performance liquid chromatography. An enzyme reaction mixture was separated by an octadecylsilane reversed-phase column (SC-50DS, Eicom Corporation; mobile phase: 250 mmol/L zinc acetate, 50 mmol/L sodium acetate, and 5.0% acetonitrile (pH 6.2)) incubated at 30° C., and kynurenic acid was quantified using a fluorescence detector (RF-20Axs, Shimadzu Corporation) at excitation wavelength 354 nm, detection wavelength 460 nm. The analytical curve was drawn every time by an external standard method. Each test compound was tested by dual measurement at each concentration. The kynurenic acid level in the presence of a test compound at each concentration was converted into % relative to kynurenic acid resulting from a reaction with an enzyme alone as 100%, and the obtained values were fitted to S-curve to determine IC50.

Where a name gives a salt, the structure may show the parent alone.

Sequence of human recombinant KAT-II (Q8N5Z0 30-425): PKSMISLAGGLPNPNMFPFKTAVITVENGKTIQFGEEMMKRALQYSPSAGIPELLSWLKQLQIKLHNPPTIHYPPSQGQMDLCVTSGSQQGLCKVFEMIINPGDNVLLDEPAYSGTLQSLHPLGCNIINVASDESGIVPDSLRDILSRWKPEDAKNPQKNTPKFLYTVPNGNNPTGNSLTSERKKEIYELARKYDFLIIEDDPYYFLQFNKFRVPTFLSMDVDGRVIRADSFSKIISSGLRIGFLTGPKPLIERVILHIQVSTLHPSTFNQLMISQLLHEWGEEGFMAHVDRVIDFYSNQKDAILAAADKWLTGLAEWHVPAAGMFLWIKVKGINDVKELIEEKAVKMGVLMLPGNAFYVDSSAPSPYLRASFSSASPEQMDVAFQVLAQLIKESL

For `COCc1c(F)cnc2nc(N3CCC[C@@H]3C(=O)NCc3ccccc3)sc12` [Example 163, (R)—N-benzyl-1-[6-fluoro-7-(methoxymethyl)[1,3]thiazolo[4,5-b]pyridin-2-yl]pyrrolidine-2-carboxamide], the IC50 was 910 nM. The result for `CCOc1nc(C)c2sc(N3CCC[C@@H]3C(=O)NCc3ccccc3)nc2n1` [Example 88] reads 420 nM; that for `Cc1nc(-c2ccc(F)cc2)nc2nc(N3CCC[C@@H]3C(=O)NCc3ccccc3)sc12` [Example 78], 550 nM; that for `O=C(NCc1ccccc1)[C@H]1CCCN1c1nc2ncnc(-c3ccccn3)c2s1` [Example 35], 290 nM. The result for `Cc1cnc2nc(N3CCC[C@@H]3C(=O)NCc3ccccc3)sc2c1` [Example 134] reads 200 nM; that for `O=C(NCc1ccccc1)[C@H]1CCCN1c1nc2ncnc(OC3CCOCC3)c2s1` [Example 90], 130 nM; that for `Cc1cnc2nc([C@H]3CCCN3C(=O)Cc3ccccc3)sc2c1` [Example 196, 1-[(R)-2-(6-methyl[1,3]thiazolo[4,5-b]pyridin-2-yl)pyrrolidin-1-yl]-2-phenylethanone], 2900 nM.

With `CCc1nc(-n2nccn2)nc2nc(N3CCC[C@@H]3C(=O)NCc3ccccc3)sc12` [Example 101, (R)—N-benzyl-1-[7-ethyl-5-(2H-1,2,3-triazol-2-yl)[1,3]thiazolo[4,5-d]pyrimidin-2-yl]pyrrolidine-2-carboxamide], the half-maximal inhibitory concentration (IC50) worked out at 150 nM. The result for `O=C(NCc1ccccc1)[C@H]1CCCN1c1nc2ncc(CN3CCCCC3)c(C3CC3)c2s1` [Example 175, (R)—N-benzyl-1-[7-cyclopropyl-6-(piperidin-1-ylmethyl)[1,3]thiazolo[4,5-b]pyridin-2-yl]pyrrolidine-2-carboxamide hydrochloride] reads 360 nM; that for `O=C(NCc1ccccc1)[C@H]1CCCN1c1nc2ncnc(Oc3ccccc3)c2s1` [Example 66], 12 nM.

For the molecule `Cc1cc2sc(N3CCC[C@@H]3C(=O)NC3(c4ccccc4)CC3)nc2nc1C` [Example 120], the IC50 came out at 530 nM. With `O=C(NCc1ccccc1)[C@H]1CCCN1c1nc2nc(-c3ccncc3)nc(C3CC3)c2s1` [Example 49] the figure was 76 nM; with `Cc1nc(OC2CCOCC2)nc2nc(N3CCC[C@@H]3C(=O)NCc3ccccc3)sc12` [Example 84], 390 nM. In the case of `O=C(NCc1ccccc1)[C@H]1CCCN1c1nc2ncc(C(F)(F)F)cc2s1` [Example 124], the IC50 worked out at 710 nM. Turning to `COC1(c2cnc3nc(N4CCC[C@@H]4C(=O)NCc4ccccc4)sc3c2)CCC1` [Example 127], the IC50 was found to be 280 nM.

Turning to `O=C(NCc1ccccc1)[C@H]1CCCN1c1nc2nc(COC3CCOCC3)nc(C3CC3)c2s1` [Example 83], the IC50 worked out at 13 nM.

On to `CCOc1cnc2nc(N3CCC[C@@H]3C(=O)NCc3ccccc3)sc2n1` [Example 190], for which the half-maximal inhibitory concentration (IC50) came out at 490 nM. `Cc1cnc2nc([C@H]3CCCN3C(=O)NC3(c4ccccc4)CC3)sc2c1` [Example 203, (R)-2-(6-methyl[1,3]thiazolo[4,5-b]pyridin-2-yl)-N-(1-phenylcyclopropyl)-pyrrolidine-1-carboxamide]: the IC50 came out at 7400 nM. With `O=C(NCc1ccccc1)[C@H]1CCCN1c1nc2ncnc(OC3CCC3)c2s1` [Example 89, (R)—N-benzyl-1-[7-(cyclobutyloxy)[1,3]thiazolo[4,5-d]pyrimidin-2-yl]pyrrolidine-2-carboxamide] the figure was 46 nM; with `O=C(NCc1ccccc1)[C@H]1CCCN1c1nc2ncnc(C3CC3)c2s1` [Example 23, (R)—N-benzyl-1-(7-cyclopropyl[1,3]thiazolo[4,5-d]pyrimidin-2-yl)pyrrolidine-2-carboxamide], 26 nM; with `CCCc1ncnc2nc(N3CCC[C@@H]3C(=O)NCc3ccccc3)sc12` [Example 26], 120 nM. The result for `CC(C)(C#N)c1cnc2nc(N3CCC[C@@H]3C(=O)NCc3ccccc3)sc2c1` [Example 113, (R)—N-benzyl-1-[6-(2-cyanopropan-2-yl)[1,3]thiazolo[4,5-b]pyridin-2-yl]pyrrolidine-2-carboxamide] reads 85 nM; that for `O=C(NCc1ccccc1)[C@H]1CCCN1c1nc2nc(CN3CCOCC3)nc(C3CC3)c2s1` [Example 98], 75 nM. The result for `Cc1nc(-c2c(C)cnc3nc(N4CCC[C@@H]4C(=O)NCc4ccccc4)sc23)no1` [Example 149] reads 110 nM; that for `CC(C)(C#N)c1ncnc2nc(N3CCC[C@@H]3C(=O)NCc3ccccc3)sc12` [Example 76, (R)—N-benzyl-1-[7-(2-cyanopropan-2-yl)[1,3]thiazolo[4,5-d]pyrimidin-2-yl]pyrrolidine-2-carboxamide], 1500 nM.

For `N#Cc1cnc2nc(N3CCC[C@@H]3C(=O)NCc3ccccc3Cl)sc2c1` [Example 178], the IC50 is 900 nM. Regarding `Cc1nc(-c2cnc3nc(N4CCC[C@@H]4C(=O)N[C@H](C)c4ccccc4)sc3c2)no1` [Example 148, (R)-1-[6-(5-methyl-1,2,4-oxadiazol-3-yl)[1,3]thiazolo[4,5-b]pyridin-2-yl]-N-[(1R)-1-phenylethyl]pyrrolidine-2-carboxamide], the IC50 worked out at 93 nM.
